pKd: −log10 of the molar value.
Target: T1, CMMBP (CmmC) (Arthrobacter globiformis, UniProt D2YYD8)
T1 construct: N-terminal 6xHis tag, pET-28b (NdeI/BamHI), E. coli Rosetta2 (DE3); structure domains span residues 31-421; tag cleavage not mentioned
T1 sequence (D2YYD8 26-421): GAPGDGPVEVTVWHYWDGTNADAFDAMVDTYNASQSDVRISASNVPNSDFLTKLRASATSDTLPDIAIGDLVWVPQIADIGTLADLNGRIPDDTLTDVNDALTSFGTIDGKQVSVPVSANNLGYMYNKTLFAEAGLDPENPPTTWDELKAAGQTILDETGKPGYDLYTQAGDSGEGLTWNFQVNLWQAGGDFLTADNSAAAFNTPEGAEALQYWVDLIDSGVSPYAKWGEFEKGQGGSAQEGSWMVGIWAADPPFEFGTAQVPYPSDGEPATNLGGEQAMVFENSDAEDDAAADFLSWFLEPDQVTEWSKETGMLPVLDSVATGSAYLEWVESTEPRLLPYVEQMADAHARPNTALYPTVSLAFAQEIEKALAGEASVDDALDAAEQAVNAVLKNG
Test: isothermal titration calorimetry
Type: binding

| Compound | pKd | Ka (×10^8 M^-1) (20 mM Tris-HCl pH 8.0, 25 °C, one-site model, printed in parentheses as not reliable (weak affinity, low c value)) |
| --- | --- | --- |
| OC[C@H]1O[C@@H]2OC[C@H]3O[C@H](O[C@H]4[C@H](O)[C@@H](O)[C@@H](OC[C@H]5O[C@H](O[C@H]1[C@H](O)[C@H]2O)[C@H](O)[C@@H](O)[C@@H]5O)O[C@@H]4CO)[C@H](O)[C@@H](O)[C@@H]3O [CMM, cyclo-{→6}-α-D-Glcp-(1→4)-α-D-Glcp-(1→6)-α-D-Glcp-(1→4)-α-D-Glcp-(1→)] | 8.02 | – |
| OC[C@H]1O[C@H](O[C@H]2[C@H](O)[C@@H](O)[C@@H](OC[C@H]3O[C@H](O[C@H]4[C@H](O)[C@@H](O)C(O)O[C@@H]4CO)[C@H](O)[C@@H](O)[C@@H]3O)O[C@@H]2CO)[C@H](O)[C@@H](O)[C@@H]1O (stereo partly drawn) [MM, α-maltosyl-(1→6)-maltose] | – | (0.0022 ± 0.0014) × 10^8 |

— PMC7676653, “Molecular analysis of cyclic α-maltosyl-(1→6)-maltose binding protein in the bacterial metabolic pathway” (PLoS ONE, 2020)
